Measured values published in article PMC8882908, “Tricyclic Antidepressant Structure-Related Alterations in Calcium-Dependent Inhibition and Open-Channel Block of NMDA Receptors” (Frontiers in Pharmacology, 2022).
“And” between values parts separate entries of the source, which are not always exact repeats. Equal entries are not always repeated. Where two headings read alike, the source gives them in different places.

What was measured:
[1] = target: N-methyl-D-aspartate receptors (NMDARs); settings: read-out: model-predicted IC50; [Ca2+] = 2.5 mM, Vm = −70 mV
Description: To obtain the voltage-dependence of NMDAR block by TCAs, the concentration-ihibition curves were generated at three membrane holding potentials Vm = −100, −70, and −30 mV. The obtained values were fitted with the modified by incorporating the dependence of NMDAR inhibition on [Ca^2+] ([Stepanenko et al., 2019]) Woodhull equation: IC50(Vm[Ca^2+])=IC50(0 mV)·exp(VmzδF/RT)·exp(-[Ca^2+]/X) (6) where IC50 (0 mV) and δ were set as free parameters. IC50 (0 mV) is the value of IC50 at Vm = 0 mV, δ is the fraction of the membrane voltage field exerting force on TCA at its binding site. z = 1 is a molecule electric charge for both DES and CLO. For Faraday constant, gas constant, and room temperature of 28°C, the RT/F ≈ 26 mV. RT/(zδF) is equal to Vm, producing an e-fold change of IC50, and X is equal to [Ca^2+], producing an e-fold change of IC50.
The model is described by Eq. 6 IC50 (Vm, [Ca^2+]) = IC50 (0 mV) • exp (Vm/(e-fold change Vm)) • exp (- [Ca^2+]/(e-fold change [Ca^2+])). The dependences of TCA IC50s on [Ca^2+] […]
FIGURE 7 Predicted IC50 values for NMDAR inhibition by tricyclic antidepressants as a function of membrane voltage (Vm) and external [Ca^2+]. […] The IC50s were calculated as IC50(Vm, [Ca^2+]) = IC50(0 mV) · exp (Vm/Y) ·exp(-[Ca^2+]/X), where X is equal to the [Ca^2+] value required for an e-fold change of IC50, and Y is equal to the Vm value required for an e-fold change of IC50.

NMDARs = settings: cited from earlier work
[2] = tested on: N-methyl-D-aspartate receptors (NMDARs); settings: for δ, fraction of the membrane electric field to the binding site: Woodhull model, from the outside
Description: All procedures on animals were performed in accordance with the guide of the Federation for Laboratory Animal Science Associations (FELASA) and were approved by the Animal Care and Use Committees of Sechenov Institute. Briefly, 17 days pregnant Wistar rats (supplied by the Sechenov Institute Animal Facility) were sacrificed by 1 min CO2 inhalation in a plastic box connected to a CO2 tank. Fetuses were removed, and then primary cultures of rat cortical neurons were prepared using conventional procedures as described earlier ([Antonov and Johnson 1996]; [Mironova et al., 2007]). Neurons were grown in Neurobasal culture medium supplemented with B-27 (Gibco-Invitrogen, United Kingdom) on 7 mm glass coverslips coated with poly-D-lysine and were used for experiments after 10–14 days in culture ([Mironova et al., 2007]; [Han and Stevens 2009]).
Whole-cell currents were recorded from cultured rat cortical neurons using a MultiClamp 700B patch-clamp amplifier. Recordings were low-pass filtered at 400 Hz and digitized at the acquisition rate of 20,000 samples per second by Digidata 1440A controlled by pClamp v10.6 software (Molecular Devices). Solution exchange was performed by means of a fast solution application system as described earlier ([Sibarov et al., 2015]). Unless otherwise specified, the external bathing solution contained (in mM): 144 NaCl; 2.8 KCl; 1.0 CaCl2; 10 HEPES, at pH 7.2–7.4, osmolarity 310 mOsm. The intrapipette solution contained (in mM): 120 CsF, 10 CsCl, 10 EGTA, and 10 HEPES, osmolarity 300 mOsm, with pH adjusted to 7.4 with CsOH. Patch pipettes of 4–6 MΩ were pulled from Sutter BF150-89-10 borosilicate capillaries. Experiments were performed at 22–25°C. Under control conditions, neurons were voltage clamped at −70 mV. Data are reported without corrections for liquid junction potential, which was measured as −11 mV. To activate NMDARs, 100 µM NMDA was always co-applied with 10 µM glycine as co-agonist. Some experiments were performed on neurons loaded with BAPTA. To load BAPTA, cortical neuron cultures were incubated in a bathing solution containing 5 µM BAPTA-AM for 1 h.
To determine the blocking potency of TCAs, NMDA elicited currents were measured in the absence and presence of different TCA concentrations ([B]). Amplitudes of currents measured in the presence of blocker (Ib) were normalized to maximal current response in control (Ic). The IC50 is the concentration of TCA that cause 50% of the maximal inhibition of currents, and the Hill coefficient (h) were estimated by fitting concentration-inhibition curves with the Hill equation: Ib/Ιc=1/(1+[Β]^h/ΙC50h) (1)
To obtain the voltage-dependence of NMDAR block by TCAs, the concentration-ihibition curves were generated at three membrane holding potentials Vm = −100, −70, and −30 mV. The obtained values were fitted with the modified by incorporating the dependence of NMDAR inhibition on [Ca^2+] ([Stepanenko et al., 2019]) Woodhull equation: IC50(Vm[Ca^2+])=IC50(0 mV)·exp(VmzδF/RT)·exp(-[Ca^2+]/X) (6) where IC50 (0 mV) and δ were set as free parameters. […] For Faraday constant, gas constant, and room temperature of 28°C, the RT/F ≈ 26 mV. RT/(zδF) is equal to Vm, producing an e-fold change of IC50, and X is equal to [Ca^2+], producing an e-fold change of IC50.

[3] = set-up: method as in Stern et al., 1980; McTavish and Benfield 1990; settings: ref Stern et al., 1980; McTavish and Benfield 1990; cited from earlier work
[4] = tested on: N-methyl-D-aspartate receptors (NMDARs); assay: Kinetics of NMDAR open-channel block and trapping block (block/unblock relaxations, AP5 washout protocol); assay type: cell-based, rat
Description: Experiments were performed at 22–25°C.
NMDAR current relaxations during block or unblock by TCA were fit with the single exponential equation: I =(Imax-Imin)·exp (-t/τ)+Imin (2) where Imax and Imin are maximal and minimal amplitudes of currents during relaxations and τ represents the time constant of the exponential component during block onset (τon) or offset (unblock, τoff). From these measurements, the rate constants of block (k^+) and unblock (k^−) was estimated. k^+ was obtained from τon measured at 20 and 90 μM DES (C1 and C2 respectively) using the equation: k^+=(1 /τonC2-1/τonC1)/(C2 - C1) (3)
The k^− was the reciprocal to measured τoff: k^-=1 /τoff (4)
The equilibrium dissociation constant (Kd) for DES was calculated as follows: Kd=k^-/ k^+ (5)
The rise time of currents activated by the testing NMDA + Gly application in trapping channel block experiments was fitted in ClampFit (pClamp, Axon Instruments) using the double exponential function: I=I1·exp(-t/τ1)+I2·exp(-t/τ2)- C (7) where I1 and I2 are amplitudes of the exponential and τ1 and τ2 are time constants of the exponential and C equals I1 + I2 + Ib.
To study the kinetics of open-channel block of NMDARs by DES, we performed experiments at a single Vm = −70 mV using a Ca^2+-free bathing solution to avoid the influence of the Ca^2+-dependent process. DES was applied at a steady state of NMDAR currents at high (90 μM) or low (20 μM) concentrations (Figure 4A). DES-induced block corresponds well to basic predictions of an open-channel block. The block onset (τon) and offset (τoff) were well fit by a single exponential function (Eq. 2). […] The rate constants of block and unblock calculated on the basis of Eqs 3, 4 were k^+ = 0.008 ± 0.002 s^−1 μM^−1; k^− = 0.039 ± 0.005 s^−1, correspondently.
The absence in records of “tail currents” upon the simultaneous removal of agonists and a blocker may speak in favor of trapping of the blocking molecule inside of the pore ([Costa and Albuquerque 1994]; [Vorobjev and Sharonova 1994]; [Benveniste and Mayer 1995]; [Sobolevsky et al., 1999]). We, therefore, further tested the possibility of trapping of DES in the pore of NMDARs by the channel closure. A series of experiments were carried out following the protocol used previously for ATL ([Stepanenko et al., 2019]). After reaching an equilibrium of NMDA-mediated currents, 90 μM DES was applied to the cell for 10 s until the development of a stable block with a small amount of residual current (Ib) (Figure 4C). […] Single exponential approximation of the data at Figure 4E (dashed line) elicits the time constant of 7.7 ± 1.8 s for DES escape from trapping, representing the quantitative characteristic of DES partial trapping block.

NMDAR channels = tested on: NMDAR channels; set-up: method as in Reynolds and Miller 1988; settings: ref Reynolds and Miller 1988; cited from earlier work

Question: With CN(C)CCC=C1c2ccccc2CCc2ccccc21 [ATL, amitriptyline] as the compound, how does the IC50 [1] read?
Answer: The IC50 was 1.6 µM.

Question: What about the “e-fold change Vm” value (NMDARs; ref Stepanenko et al., 2019) of the same compound?
Answer: Its value is 54 mV.

Question: And the “e-fold change [Ca2+]” value (NMDARs; ref Stepanenko et al., 2019)?
Answer: The value was 0.63 mM.

Question: What about the “time constant of escape from trapping block” value (NMDARs; ref Stepanenko et al., 2019) of the same compound?
Answer: The value was “about 1.2 s”.

Question: And the “δ, fraction of the membrane electric field” value (NMDARs; ref Stepanenko et al., 2019)?
Answer: Its value is 0.51.

Question: And the IC50 (NMDARs; ref Stepanenko et al., 2019, read-out: IC50(0 mV))?
Answer: The IC50 was 321 µM.

Question: Which results are given for CN(C)CCCN1c2ccccc2CCc2ccc(Cl)cc21 [CLO, clomipramine]?
Answer: δ, fraction of the membrane electric field to the binding site [2]: 0.51; therapeutic blood concentrations [3]: 0.3 to 1 µM

Question: For CNCCCN1c2ccccc2CCc2ccccc21 [DES, desipramine], which “fold lesser rate of dissociation from channels than ATL” value [4] is on record?
Answer: Its value is “about 5 folds”.

Question: And the “rate constant of unblock k−” value ([4]; Vm = −70 mV, Ca2+-free solution, 1/τoff)?
Answer: Its value is 0.039 ± 0.005 s⁻¹.

Question: And the “rate constant of block k+” value ([4]; Vm = −70 mV, Ca2+-free solution, from τon at 20 and 90 μM)?
Answer: Its value is 8000 ± 2000 M⁻¹ s⁻¹.

Question: What about the Kd ([4]; Vm = −70 mV, Ca2+-free solution, read-out: equilibrium dissociation constant Kd = k−/k+) of the same compound?
Answer: Its Kd is 4.7 ± 1.9 µM.

Question: And the “fold drop of IC50 on increasing extracellular [Ca2+] from 0 to 1 mM” value [2]?
Answer: The value was 5 fold.

Question: What about the “fold smaller Vm shift for an e-fold change of IC50 than ATL or CLO” value [2] of the same compound?
Answer: Its value is about 1.5 folds.

Question: And the “δ, fraction of the membrane electric field to the binding site” value [2]?
Answer: Its value is 0.71.

Question: And the “open-channel block potency relative to ATL” value ([2]; based on IC50 (0 mV))?
Answer: The value was “about 5 folds”.

Question: And the “e-fold change Vm (Vm shift giving an e-fold change of IC50)” value ([2]; fit with Eq. 6)?
Answer: Its value is 37 ± 3.4 mV and 37 mV and 36.9 ± 3.4 mV.

Question: What about the “e-fold change [Ca2+] ([Ca2+] shift giving an e-fold change of IC50)” value ([2]; fit with Eq. 6, Vm = −70 mV) of the same compound?
Answer: Its value is 590 µM and 590 ± 70 µM.

Question: What about the IC50 ([2]; read-out: IC50(0 mV), value of IC50 at Vm = 0 mV from fit with Eq. 6 (Woodhull)) of the same compound?
Answer: The IC50 was 60 ± 5.7 µM.

Question: What about the IC50 ([2]; read-out: IC50 of the inhibition of NMDAR currents, Vm = −30 mV, [Ca2+] = 0) of the same compound?
Answer: Its IC50 is 27 µM.

Question: What about the IC50 ([2]; read-out: IC50 of the inhibition of NMDAR currents, Vm = −30 mV, [Ca2+] = 1 mM) of the same compound?
Answer: The IC50 was 4.85 µM.

Question: And the IC50 ([2]; read-out: IC50 of the inhibition of NMDAR currents, Vm = −70 mV, [Ca2+] = 0)?
Answer: Its IC50 is 8.3 µM.

Question: And the IC50 ([2]; read-out: IC50 of the inhibition of NMDAR currents, Vm = −70 mV, [Ca2+] = 1 mM)?
Answer: Its IC50 is 1.75 µM.

Question: What about the IC50 ([2]; read-out: IC50 of the inhibition of NMDAR currents, Vm = −70 mV, [Ca2+] = 4 mM) of the same compound?
Answer: Its IC50 is 1.8 µM and 1.81 µM.

Question: What about the IC50 ([2]; read-out: IC50 of the inhibition of NMDAR currents, Vm = −100 mV, [Ca2+] = 1 mM) of the same compound?
Answer: Its IC50 is 0.89 µM.

Question: What about the “fold IC50 decrease with Vm shift from −30 to −100 mV” value ([2]; regardless of extracellular calcium) of the same compound?
Answer: Its value is 5.4 fold.

Question: And the IC50 [1]?
Answer: Its IC50 is 0.13 µM.

Question: And the “e-fold change Vm” value (NMDARs; 5 μM NMDA, physiological extracellular Ca2+, ref Sernagor et al., 1989)?
Answer: Its value is 36 mV.

Question: And the IC50 (NMDARs; 5 μM NMDA, physiological extracellular Ca2+, ref Sernagor et al., 1989, read-out: IC50)?
Answer: The IC50 was 9.8 µM.

Question: What about the IC50 (NMDARs; Vm = −70 mV, extracellular Ca2+ present, 100 μM NMDA, ref Barygin et al., 2017, read-out: IC50) of the same compound?
Answer: Its IC50 is 1.4 µM.

Question: And the IC50 (NMDARs; Vm = −70 mV, extracellular Ca2+ present, 100 μM NMDA, ref Nothdurfter et al., 2013, read-out: IC50)?
Answer: Its IC50 is 2.7 µM.

Question: What about the IC50 (NMDARs; varying experimental conditions, ref Reynolds and Miller 1988, Sernagor et al., 1989, Nothdurfter et al., 2013, Barygin et al., 2017, read-out: IC50 values reported for NMDAR inhibition) of the same compound?
Answer: The IC50 was 1.4 to 9.8 µM.

Question: What about the “concentration displacing MK-801 from the NMDAR channels” value (NMDAR channels) of the same compound?
Answer: Its value is 7.41 µM.
